Results taken from ChEMBL document CHEMBL5506005, “Biochemical and structural characterization of chlorhexidine as an ATP-assisted inhibitor against type 1 methionyl-tRNA synthetase from Gram-positive bacteria” (Eur J Med Chem, 2024).
Values belong to the compound of their own block, whether it stands above or below them.

Legend:
[1] = molecular target: Methionine--tRNA ligase (Staphylococcus aureus (strain Mu50 / ATCC 700699)) (UniProt P67578); assay: Binding affinity to Staphylococcus aureus MetRS expressed in Escherichia coli BL21(DE3) cells assessed as change in entropy by ITC analysis
[2] = molecular target: Methionine--tRNA ligase (Staphylococcus aureus (strain Mu50 / ATCC 700699)) (UniProt P67578); assay: Binding affinity to Staphylococcus aureus MetRS expressed in Escherichia coli BL21(DE3) cells assessed as change in entropy in presence of 50 uM ATP by ITC analysis
[3] = molecular target: Methionine--tRNA ligase (Staphylococcus aureus (strain Mu50 / ATCC 700699)) (UniProt P67578); assay: Binding affinity to Staphylococcus aureus MetRS expressed in Escherichia coli BL21(DE3) cells assessed as change in enthalpy in presence of 1 mM ATP by ITC analysis
[4] = molecular target: Methionine--tRNA ligase (Staphylococcus aureus (strain Mu50 / ATCC 700699)) (UniProt P67578); assay: Binding affinity to Staphylococcus aureus MetRS expressed in Escherichia coli BL21(DE3) cells assessed as change in enthalpy in presence of 20 uM ATP by ITC analysis
[5] = molecular target: Methionine--tRNA ligase (Staphylococcus aureus (strain Mu50 / ATCC 700699)) (UniProt P67578); assay: Binding affinity to Staphylococcus aureus MetRS expressed in Escherichia coli BL21(DE3) cells assessed as change in Gibbs free energy in presence of 1 mM ATP by ITC analysis
[6] = molecular target: Methionine--tRNA ligase (Staphylococcus aureus (strain Mu50 / ATCC 700699)) (UniProt P67578); assay: Binding affinity to Staphylococcus aureus MetRS expressed in Escherichia coli BL21(DE3) cells assessed as change in enthalpy in presence of 50 uM ATP by ITC analysis
[7] = molecular target: Methionine--tRNA ligase (Staphylococcus aureus (strain Mu50 / ATCC 700699)) (UniProt P67578); assay: Binding affinity to Staphylococcus aureus MetRS expressed in Escherichia coli BL21(DE3) cells assessed as change in Gibbs free energy in presence of 50 uM ATP by ITC analysis
[8] = molecular target: Methionine--tRNA ligase (Staphylococcus aureus (strain Mu50 / ATCC 700699)) (UniProt P67578); assay: Binding affinity to Staphylococcus aureus MetRS expressed in Escherichia coli BL21(DE3) cells assessed as change in Gibbs free energy in presence of 20 uM ATP by ITC analysis
[9] = molecular target: Methionine--tRNA ligase (Staphylococcus aureus (strain Mu50 / ATCC 700699)) (UniProt P67578); assay: Binding affinity to Staphylococcus aureus MetRS expressed in Escherichia coli BL21(DE3) cells assessed as thermal stability by measuring change in melting temperature incubated for 10 mins followed by heat treatment in presence of 2 mM ATP by SYPRO orange dye based TSA
[10] = molecular target: Methionine--tRNA ligase (Staphylococcus aureus (strain Mu50 / ATCC 700699)) (UniProt P67578); assay: Binding affinity to Staphylococcus aureus MetRS expressed in Escherichia coli BL21(DE3) cells assessed as change in entropy in presence of 20 uM ATP by ITC analysis
[11] = molecular target: Methionine--tRNA ligase (Staphylococcus aureus (strain Mu50 / ATCC 700699)) (UniProt P67578); assay: Binding affinity to Staphylococcus aureus MetRS expressed in Escherichia coli BL21(DE3) cells assessed as change in enthalpy by ITC analysis
[12] = molecular target: Methionine--tRNA ligase (Staphylococcus aureus (strain Mu50 / ATCC 700699)) (UniProt P67578); assay: Binding affinity to Staphylococcus aureus MetRS expressed in Escherichia coli BL21(DE3) cells assessed as change in entropy in presence of 1 mM ATP by ITC analysis
[13] = molecular target: Methionine--tRNA ligase (Staphylococcus aureus (strain Mu50 / ATCC 700699)) (UniProt P67578); assay: Binding affinity to Staphylococcus aureus MetRS expressed in Escherichia coli BL21(DE3) cells assessed as change in Gibbs free energy by ITC analysis
Methionine--tRNA ligase [14] = molecular target: T1, Methionine--tRNA ligase (Enterococcus faecalis, UniProt A0A3N3ZFK4); assay: Inhibition of Enterococcus faecalis type 1 MetRS expressed in Escherichia coli BL21(DE3) cells measured after 1.5 hrs in presence of ATP by pre-transfer editing assay
Methionine--tRNA ligase [15] = molecular target: T2, Methionine--tRNA ligase (Staphylococcus aureus (strain Mu50 / ATCC 700699), UniProt P67578); assay: Inhibition of Staphylococcus aureus MetRS expressed in Escherichia coli BL21(DE3) cells measured after 2.5 hrs in presence of ATP by pre-transfer editing assay
Methionine--tRNA ligase [16] = molecular target: T1, Methionine--tRNA ligase; assay: Binding affinity to Enterococcus faecalis type 1 MetRS expressed in Escherichia coli BL21(DE3) cells assessed as dissociation constant in presence of 1 mM ATP by ITC analysis
Methionine--tRNA ligase [17] = molecular target: T2, Methionine--tRNA ligase; assay: Binding affinity to Staphylococcus aureus MetRS expressed in Escherichia coli BL21(DE3) cells assessed as dissociation constant in presence of 20 uM ATP by ITC analysis
Methionine--tRNA ligase [18] = molecular target: T2, Methionine--tRNA ligase; assay: Binding affinity to Staphylococcus aureus MetRS expressed in Escherichia coli BL21(DE3) cells assessed as dissociation constant in presence of 50 uM ATP by ITC analysis
Methionine--tRNA ligase [19] = molecular target: T2, Methionine--tRNA ligase; assay: Binding affinity to Staphylococcus aureus MetRS expressed in Escherichia coli BL21(DE3) cells assessed as dissociation constant in presence of 1 mM ATP by ITC analysis
Methionine--tRNA ligase [20] = molecular target: T1, Methionine--tRNA ligase; assay: Binding affinity to Enterococcus faecalis type 1 MetRS expressed in Escherichia coli BL21(DE3) cells assessed as dissociation constant by ITC analysis
Methionine--tRNA ligase [21] = molecular target: T2, Methionine--tRNA ligase; assay: Binding affinity to Staphylococcus aureus MetRS expressed in Escherichia coli BL21(DE3) cells assessed as dissociation constant by ITC analysis

T1 sequence (A0A3N3ZFK4 whole entry): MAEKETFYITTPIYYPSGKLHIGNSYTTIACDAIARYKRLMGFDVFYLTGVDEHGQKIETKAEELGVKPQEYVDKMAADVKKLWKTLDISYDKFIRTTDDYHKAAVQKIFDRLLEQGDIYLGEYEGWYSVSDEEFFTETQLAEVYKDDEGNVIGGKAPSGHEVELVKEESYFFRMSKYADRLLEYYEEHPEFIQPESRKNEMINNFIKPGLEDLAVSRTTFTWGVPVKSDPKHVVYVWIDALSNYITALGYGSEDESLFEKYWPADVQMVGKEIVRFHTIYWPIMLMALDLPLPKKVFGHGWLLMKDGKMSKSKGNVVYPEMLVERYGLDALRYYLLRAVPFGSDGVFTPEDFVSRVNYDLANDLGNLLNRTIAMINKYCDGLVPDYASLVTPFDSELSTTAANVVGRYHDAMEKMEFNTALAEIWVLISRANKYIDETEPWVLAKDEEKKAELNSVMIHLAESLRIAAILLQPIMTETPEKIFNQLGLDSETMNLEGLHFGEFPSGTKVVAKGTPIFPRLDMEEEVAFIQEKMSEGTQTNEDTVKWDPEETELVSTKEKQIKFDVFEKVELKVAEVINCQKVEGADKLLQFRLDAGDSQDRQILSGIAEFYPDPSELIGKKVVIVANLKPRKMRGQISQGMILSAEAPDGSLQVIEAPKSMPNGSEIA

-TdeltaS [1]: 1.94 kcal/mol | -TdeltaS [2]: 7.28 kcal/mol | deltaH [3]: -14.4 kcal/mol | deltaH [4]: -18 kcal/mol | deltaG [5]: -8.7 kcal/mol | deltaH [6]: -15.7 kcal/mol | deltaG [7]: -8.61 kcal/mol | deltaG [8]: -8 kcal/mol | ΔTm [9]: 9 °C | -TdeltaS [10]: 11.3 kcal/mol | deltaH [11]: -8.62 kcal/mol | -TdeltaS [12]: 6.23 kcal/mol | deltaG [13]: -7.24 kcal/mol
SMILES: N=C(NCCCCNC(=N)NC(=N)Nc1ccc(Cl)cc1)NC(=N)Nc1ccc(Cl)cc1

IC50 (Methionine--tRNA ligase [14]): 16100 nM | IC50 (Methionine--tRNA ligase [15]): 17300 nM | Kd (Methionine--tRNA ligase [16]): 150 nM | Kd (Methionine--tRNA ligase [17]): 1370 nM | Kd (Methionine--tRNA ligase [18]): 493 nM | Kd (Methionine--tRNA ligase [19]): 452 nM | Kd (Methionine--tRNA ligase [20]): 2700 nM | Kd (Methionine--tRNA ligase [21]): 4920 nM
SMILES: [H]/N=C(/NCCCCN/C(=N/[H])N/C(=N/[H])Nc1ccc(Cl)cc1)N/C(=N/[H])Nc1ccc(Cl)cc1
